Entries after “also recorded” stand apart in the source; their conditions may differ.
Test system: PH-HFpEF patients
Assay: HELP Study double-blind phase: weekly 24-hour infusions for 5 weeks vs placebo, assessment at Week 6
Format: in vivo, human
Details: for mean pulmonary arterial pressure (mPAP) / right atrial pressure (RAP) / six-minute walk test distance: Week 6, compared with placebo; for pulmonary capillary wedge pressure (PCWP): baseline vs Week 6, compared with placebo
Protocol: Study drug is administered via i.v. infusion over 24 hours weekly through Week 5 via a PICC line. Infusions (Week 2-5) are done in the subject's home by a study nurse. Patients return to the study site for a visit between the Week 3 and Week 4 infusions for assessment of subject safety/response and need for dose adjustment. Each subject is to return on Week 6 for assessment of efficacy and safety on study drug. A right heart catheter will be inserted to obtain hemodynamic measurements at rest and exercise at baseline, the following day after the lead-in 24-hour infusion, and during Week 6.
During the Lead-in phase of the study, a sufficient number of subjects are enrolled and receive levosimendan to identify a total of 36 ‘responders.’ The levosimendan ‘responders’ are randomized 1:1, levosimendan or placebo, for the double-blind phase of the study.
During the Double-blind phase, study drug concentrated solution (2.5 mg/mL), levosimendan or placebo, is mixed with diluent and administered via a PICC line as weekly infusions at 0.075 μg/kg/min for 24 hours. Patients undergo a dose escalation at Week 4 and 5 (0.10 μg/kg/min for 24 hours) unless there has been a meaningful change in blood pressure or heart rate. Infusion rates may be reduced to 0.05 μg/kg/min if the higher dose is not well-tolerated at any time during the initial 5 weeks.
Visits at Weeks 2, 3, 4, and 5 are performed within +/−48 hours of the scheduled visit. Visits for Weeks 2-5 are calculated based on the date of the Lead-in infusion. These visits are performed at the subject's home with the aid of the home health care nurse. The home health care nurse remains with the patient for the first 2-3 hours of the infusion to ensure patient safety. The home health care nurse visits the patient again at 24 hours to stop the infusion and assess the patient's status. During this visit, the following procedures are performed: Record any changes in procedures, prescription and non-prescription drugs, vitamins, and dietary or herbal supplements; measure vital signs prior to starting the infusion, after the first 2 hours (+/−30 min), and after 24 hours (+/−30 min); assess adverse events and study drug administration. At Week 5, all patients are given a new cardiac monitoring sensor to wear on their chest to measure cardiac rhythm, as was done during Screening. The patch is applied prior to (<1 hour) the 24-hour infusion, remain monitoring the patient for a minimum of 72 hours and returned to the investigational site at the Week 6 visit.
Visits at Week 6 should be performed 3-6 days following completion of the Week 5 infusion. During this visit, the following procedures are performed: record any changes in procedures, prescription and non-prescription drugs, vitamins, and dietary or herbal supplements; measure vital signs (BP, PR, respiratory rate, temperature); hematology and clinical chemistry blood samples; conduct 12-lead ECG; echocardiogram within +/−72 hours of the Week 6 visit; right heart catheterization at rest and with exercise; QOL assessment; Child-Pugh Class, NYHA Functional Class, assess adverse events, 6 minute walk test; and pharmacokinetic sampling (sample to be taken prior to enrollment in Open-Label phase.
The 6-minute walk test (6MWT) is performed at approximately the same time of day at each study visit after the Baseline Visit and ideally, one of the first assessments to be performed. The ECHO and subject questionnaire are performed after the 6MWT has been completed. The 6MWT is performed using the methods described in the American Thoracic Society (ATS) Statement: Guidelines for the Six-Minute Walk Test. The test is performed at approximately the same time of day when assessed and by the same evaluator whenever possible.

[1] = chronic (weekly for 5 weeks) administration, week 6
[2] = weekly 24-hour infusions, listed as Levosimendan
[3] = weekly 24-hour infusions, compared with placebo

## C[C@@H]1CC(=O)NN=C1c1ccc(NN=C(C#N)C#N)cc1 [levosimendan, Levosimendan]
[1]
  Cardiac Index (CI): unchanged at week 6
  pulmonary vascular resistance (PVR): unchanged at week 6
Chronic (weekly for 5 weeks) administration, week 6, listed as Levosimendan
  pulmonary vascular resistance (PVR): did not decrease
Weekly 24-hour dosing
  safety and tolerability: safe and well tolerated
Weekly 24-hour infusions
  mean pulmonary arterial pressure (mPAP): significantly greater reduction; also recorded: decrease
  right atrial pressure (RAP): decrease; also recorded: significantly greater reduction
  six-minute walk test distance: significantly increased; also recorded: increase; also recorded: statistically significant improvement
  pulmonary capillary wedge pressure (PCWP): significant vs placebo; also recorded: greater decrease
[2]
  mean pulmonary arterial pressure (mPAP): reduces
  right atrial pressure (RAP): improves
  six-minute walk test distance: improves
  pulmonary capillary wedge pressure (PCWP): improves
[3]
  cardiac output: significantly greater increase
  proportion of subjects with an improved sense of well-being: significantly higher proportion

Reference: patent US11701355B2, “Levosimendan for treating pulmonary hypertension with heart failure with preserved ejection fraction (PH-HFpEF)” (Tenax Therapeutics, Inc., priority 2019, dated 2023)
